The results in this text go back to publication PMC11577813, “Eurasian spruce bark beetle detects lanierone using a highly expressed specialist odorant receptor, present in several functional sensillum types” (BMC Biology, 2024).

Structures are written as SMILES.

This experiment has as its target T1, ItypOR36 (with ItypOrco) (Ips typographus, UniProt A0AAU6S471).
T1 construct: gene OR36; heteromeric OR/Orco ligand-gated ion channel; GenBank id is for ItypOR36; with Odorant receptor coreceptor
T1 sequence (A0AAU6S471 1-390): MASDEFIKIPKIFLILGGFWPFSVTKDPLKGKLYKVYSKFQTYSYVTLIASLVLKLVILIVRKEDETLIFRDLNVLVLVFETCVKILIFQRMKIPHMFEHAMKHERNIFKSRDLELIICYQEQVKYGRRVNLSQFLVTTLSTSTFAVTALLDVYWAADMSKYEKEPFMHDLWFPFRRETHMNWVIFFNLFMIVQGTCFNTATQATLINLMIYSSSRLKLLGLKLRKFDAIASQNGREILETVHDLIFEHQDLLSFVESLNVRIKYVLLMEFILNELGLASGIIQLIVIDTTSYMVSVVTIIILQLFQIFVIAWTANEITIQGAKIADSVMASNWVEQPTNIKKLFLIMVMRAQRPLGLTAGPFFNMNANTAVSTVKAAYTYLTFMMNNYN
Put plainly: Fluo4-AM calcium fluorescence in HEK293 cells, dose-response. It is filed as cell-based. As to conditions: agonist; co-expressed ItypOrco; doxycycline-induced; DPBS with 1 mM probenecid, pH 7.1.

As usually defined, the EC50 is the concentration at which the effect is half-maximal. Regarding `CC1=CC(C)(C)C=C(O)C1=O` [lanierone, 2-hydroxy-4,4,6-trimethyl-2,5-cyclohexadien-l-one], the EC50 came to 790 nM.
